In ChEMBL document CHEMBL4411274, “Recent advances of tetrazole derivatives as potential anti-tubercular and anti-malarial agents” (Eur J Med Chem, 2019):
Values after ≈ are worked out from the molar mass of the structure shown.

Legend:
CHO-K1 = experiment: Cytotoxicity against CHOK1 cells after 24 hrs by MTT assay; type: cell-based; settings: Cricetulus griseus, CHO-K1, 24 h
[1] = system: Mycobacterium tuberculosis; experiment: Antibacterial activity against Mycobacterium tuberculosis H37Rv by MABA; type: functional
[2] = system: Mycobacterium tuberculosis; experiment: Antibacterial activity against Mycobacterium tuberculosis H37Rv by resazurin dye-based assay; type: functional
Falcipain 2 = target: T1, Falcipain 2 (Plasmodium falciparum, UniProt Q9N6S8); experiment: Inhibition of Plasmodium falciparum falcipain-2 preincubated for 30 mins followed by Z-Leu-Arg-AMC substrate addition and measured up to 15 mins by spectrofluorometric analysis
T1 sequence (Q9N6S8 whole entry): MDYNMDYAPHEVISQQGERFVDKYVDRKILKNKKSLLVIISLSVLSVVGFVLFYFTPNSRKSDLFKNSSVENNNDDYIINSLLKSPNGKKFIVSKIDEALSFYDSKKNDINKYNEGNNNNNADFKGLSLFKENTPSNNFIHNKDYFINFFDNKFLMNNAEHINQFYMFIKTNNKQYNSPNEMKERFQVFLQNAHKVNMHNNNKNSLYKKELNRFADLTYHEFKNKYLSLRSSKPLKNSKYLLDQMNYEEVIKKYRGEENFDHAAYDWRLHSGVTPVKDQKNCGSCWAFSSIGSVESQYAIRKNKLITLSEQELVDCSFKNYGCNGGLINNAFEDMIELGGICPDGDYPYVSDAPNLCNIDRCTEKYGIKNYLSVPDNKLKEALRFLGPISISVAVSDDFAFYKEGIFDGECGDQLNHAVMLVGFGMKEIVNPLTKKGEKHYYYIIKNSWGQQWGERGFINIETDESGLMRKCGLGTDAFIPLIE

[3] = target: T2, Cysteine protease falcipain-3 (Plasmodium falciparum, UniProt Q9NAW4); experiment: Inhibition of Plasmodium falciparum falcipain-3 preincubated for 30 mins followed by Z-Leu-Arg-AMC substrate addition and measured up to 15 mins by spectrofluorometric analysis
T2 sequence (Q9NAW4 whole entry): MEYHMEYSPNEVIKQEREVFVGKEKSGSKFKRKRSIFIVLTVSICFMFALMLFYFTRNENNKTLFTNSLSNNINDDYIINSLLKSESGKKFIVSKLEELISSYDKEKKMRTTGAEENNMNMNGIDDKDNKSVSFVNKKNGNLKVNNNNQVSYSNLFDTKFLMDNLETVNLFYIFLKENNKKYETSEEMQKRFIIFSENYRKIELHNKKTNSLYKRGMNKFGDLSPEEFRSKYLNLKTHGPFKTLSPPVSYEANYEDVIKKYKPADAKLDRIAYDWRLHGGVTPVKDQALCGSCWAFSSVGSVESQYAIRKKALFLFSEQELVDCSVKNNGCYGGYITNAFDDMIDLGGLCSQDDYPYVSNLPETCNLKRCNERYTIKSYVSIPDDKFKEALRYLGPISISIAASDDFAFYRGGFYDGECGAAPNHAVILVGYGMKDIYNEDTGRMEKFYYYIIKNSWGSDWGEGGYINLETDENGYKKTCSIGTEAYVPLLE

Plasmodium falciparum [4] = experiment: Antimalarial activity against Plasmodium falciparum K2 infected in human erythrocytes assessed as parasitemia after 48 hrs by YOYO-1 staining-based flow cytometric analysis; type: functional, organism-based; settings: K2, 48 h
Plasmodium falciparum [5] = experiment: Antimalarial activity against ring-stage multidrug-resistant Plasmodium falciparum Dd2 preincubated for 6 hrs followed by compound wash and measured after 66 hrs by Giemsa-staining based light microscopic analysis; type: functional, organism-based
Plasmodium falciparum [6] = experiment: Antimalarial activity against ring-stage chloroquine-susceptible Plasmodium falciparum 3D7 preincubated for 6 hrs followed by compound wash and measured after 66 hrs by Giemsa-staining based light microscopic analysis; type: functional, organism-based

COc1cc(-c2nnnn2S(=O)(=O)c2ccc(Br)cc2)ccc1OCC(O)(Cn1cncn1)c1ccc(Cl)cc1Cl (stereo not drawn)
IC50 (CHO-K1): > 150 µg/mL
MIC [1]: 1.56 to 12.5 µg/mL (≈ 2.29 to 18.3 µM)

COc1ccc(C2C(Cl)C(=O)N2NC(=O)Cn2nnnc2-c2ccccc2)cc1 (stereo not drawn)
MIC [2]: 0.156 µg/mL (≈ 0.378 µM)

COc1cc(-c2nnnn2S(=O)(=O)c2ccc(OC(F)(F)F)cc2)ccc1OCC(O)(Cn1cncn1)c1ccc(Cl)cc1Cl (stereo not drawn)
IC50 (CHO-K1): > 150 µg/mL
MIC [1]: 1.56 to 12.5 µg/mL (≈ 2.27 to 18.2 µM)

COc1cc(-c2nnnn2S(=O)(=O)c2ccc([N+](=O)[O-])cc2)ccc1OCC(O)(Cn1cncn1)c1ccc(F)cc1F (stereo not drawn)
IC50 (CHO-K1): > 150 µg/mL
MIC [1]: 12.5 µg/mL (≈ 20.3 µM)

Cc1cc(NC(=O)Cn2nnc(-c3ccc(N)cc3)n2)no1
IC50 (Falcipain 2): 6.67 to 43.9 µM
IC50 [3]: 6.67 to 43.9 µM
IC50 (Plasmodium falciparum [4]): > 10 µM

COc1cc(-c2nnnn2S(=O)(=O)c2ccc(C)cc2)ccc1OCC(O)(Cn1cncn1)c1ccc(Cl)cc1Cl (stereo not drawn)
IC50 (CHO-K1): > 150 µg/mL
MIC [1]: 1.56 to 12.5 µg/mL (≈ 2.53 to 20.3 µM)

COc1cc(-c2nnnn2S(=O)(=O)c2ccccc2)ccc1OCC(O)(Cn1cncn1)c1ccc(F)cc1F (stereo not drawn)
IC50 (CHO-K1): > 150 µg/mL
MIC [1]: 3.12 µg/mL (≈ 5.48 µM)

CN(C)c1ccc(C2C(Cl)C(=O)N2NC(=O)Cn2nnnc2-c2ccccc2)cc1 (stereo not drawn)
MIC [2]: 0.156 µg/mL (≈ 0.366 µM)

C1C2CC3CC1CC(C2)C31OOC2(CCC(Nc3nnn[nH]3)CC2)OO1 (stereo not drawn)
IC50 (Plasmodium falciparum [5]): 0.0435 µM
IC50 (Plasmodium falciparum [6]): 0.063 µM

c1ccc(-n2nnnc2OCC2CCC3(CC2)OOC2(O3)C3CC4CC(C3)CC2C4)cc1 (stereo not drawn)
IC50 (Plasmodium falciparum [5]): 0.0021 to 0.0244 µM
IC50 (Plasmodium falciparum [6]): 0.0021 to 0.0244 µM

Cc1ccc(C2C(Cl)C(=O)N2NC(=O)Cn2nnnc2-c2ccccc2)cc1 (stereo not drawn)
MIC [2]: > 6.25 µg/mL

COc1cc(-c2nnnn2S(=O)(=O)c2ccc(C)cc2)ccc1OCC(O)(Cn1cncn1)c1ccc(F)cc1F (stereo not drawn)
IC50 (CHO-K1): > 150 µg/mL

COc1ccc(-c2ccc(-c3nnn(CC(=O)c4ccccc4)n3)cc2)cc1
IC50 (Falcipain 2): 6.67 to 43.9 µM
IC50 [3]: 6.67 to 43.9 µM
IC50 (Plasmodium falciparum [4]): > 10 µM

O=C(Cn1nnnc1-c1ccccc1)NN1C(=O)C(Cl)C1c1ccc([N+](=O)[O-])cc1 (stereo not drawn)
MIC [2]: > 6.25 µg/mL

COc1cc(-c2nnnn2S(=O)(=O)c2ccc(Br)s2)ccc1OCC(O)(Cn1cncn1)c1ccc(F)cc1F (stereo not drawn)
IC50 (CHO-K1): > 150 µg/mL
MIC [1]: 1.56 µg/mL (≈ 2.38 µM)

O=C(Cn1nnnc1-c1ccccc1)NN1C(=O)C(Cl)C1c1ccc(Cl)cc1 (stereo not drawn)
MIC [2]: > 6.25 µg/mL

COc1ccc(S(=O)(=O)n2nnnc2-c2ccc(OCC(O)(Cn3cncn3)c3ccc(F)cc3F)c(OC)c2)cc1 (stereo not drawn)
IC50 (CHO-K1): > 150 µg/mL
MIC [1]: 1.56 µg/mL (≈ 2.6 µM)

COc1cc(-c2nnnn2S(=O)(=O)c2ccc(C(C)(C)C)cc2)ccc1OCC(O)(Cn1cncn1)c1ccc(F)cc1F (stereo not drawn)
IC50 (CHO-K1): > 150 µg/mL
MIC [1]: 1.56 µg/mL (≈ 2.49 µM)

COc1ccc(C(=O)Cn2nnc(-c3ccccc3NC(=O)c3ccncc3)n2)cc1
IC50 (Falcipain 2): 6.67 to 43.9 µM
IC50 [3]: 6.67 to 43.9 µM
IC50 (Plasmodium falciparum [4]): > 10 µM

CC(C(=O)N1c2ccccc2CCc2ccccc21)n1nnc(-c2ccc(N3CCOCC3)cc2)n1 (stereo not drawn)
IC50 (Falcipain 2): 6.67 to 43.9 µM
IC50 [3]: 6.67 to 43.9 µM
IC50 (Plasmodium falciparum [4]): > 10 µM

CCCCOc1ccc(-c2nnn(CC(=O)Nc3c(C)ccc4ccccc34)n2)cc1
IC50 (Falcipain 2): 6.67 to 43.9 µM
IC50 [3]: 6.67 to 43.9 µM
IC50 (Plasmodium falciparum [4]): > 10 µM

COc1cc(-c2nnnn2S(=O)(=O)c2ccc(F)cc2)ccc1OCC(O)(Cn1cncn1)c1ccc(F)cc1F (stereo not drawn)
IC50 (CHO-K1): > 150 µg/mL
MIC [1]: 6.25 µg/mL (≈ 10.6 µM)

COc1cc(-c2nnnn2S(=O)(=O)c2ccc(C(C)(C)C)cc2)ccc1OCC(O)(Cn1cncn1)c1ccc(Cl)cc1Cl (stereo not drawn)
IC50 (CHO-K1): > 150 µg/mL
MIC [1]: 1.56 to 12.5 µg/mL (≈ 2.37 to 19 µM)

COc1cc(-c2nnnn2S(=O)(=O)c2ccc([N+](=O)[O-])cc2)ccc1OCC(O)(Cn1cncn1)c1ccc(Cl)cc1Cl (stereo not drawn)
IC50 (CHO-K1): > 150 µg/mL
MIC [1]: 1.56 to 12.5 µg/mL (≈ 2.41 to 19.3 µM)

C1C2CC3CC1CC(C2)C31OOC2(CCC(Nc3nnn[nH]3)CC2)O1 (stereo not drawn)
IC50 (Plasmodium falciparum [5]): 0.0025 µM
IC50 (Plasmodium falciparum [6]): 0.0028 µM

C[C@@H]1CC[C@H]2[C@@H](C)C(=O)O[C@@H]3O[C@@]4(C)CC[C@@H]1[C@]32OO4 [ARTEMISININ]
IC50 (Plasmodium falciparum [5]): 0.0025 µM
IC50 (Plasmodium falciparum [6]): 0.004 µM

C[C@H]1[C@@H](O)O[C@@H]2O[C@@]3(C)CC[C@H]4[C@H](C)CC[C@@H]1[C@@]24OO3 [ARTENIMOL]
IC50 (Plasmodium falciparum [5]): 0.0042 µM
IC50 (Plasmodium falciparum [6]): 0.0047 µM
